Laboratory results published in patent US5703106A, “Antagonists of endothelin receptors” (priority 1994, dated 1997).

target: T1, ETB receptor (Sus scrofa, UniProt P35463); assay: Scatchard analysis of radioligand binding, ETB receptor; settings: porcine lung plasma membrane, [^125 I]ET-3 alone
T1 construct: The plasma membrane of porcine lung (2 mg of protein); from tissue; host or cells: porcine lung plasma membrane
T1 sequence (P35463 27-443): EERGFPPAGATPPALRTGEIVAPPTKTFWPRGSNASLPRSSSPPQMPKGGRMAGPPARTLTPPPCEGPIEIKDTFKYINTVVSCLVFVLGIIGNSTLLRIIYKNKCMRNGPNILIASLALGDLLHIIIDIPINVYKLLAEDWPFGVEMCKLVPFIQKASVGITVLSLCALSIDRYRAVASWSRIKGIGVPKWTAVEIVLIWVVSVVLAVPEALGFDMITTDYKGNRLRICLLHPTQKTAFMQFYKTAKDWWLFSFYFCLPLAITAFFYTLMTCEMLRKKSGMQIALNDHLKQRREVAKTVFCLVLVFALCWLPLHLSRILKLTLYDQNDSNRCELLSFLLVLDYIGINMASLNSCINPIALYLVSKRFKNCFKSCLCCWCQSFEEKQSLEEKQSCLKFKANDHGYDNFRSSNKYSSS
Experimental: After the incubation, unbound [^125 I]ETs were separated by centrifugation at 20,000×g for 20 min at 4° C. followed by aspiration of the supernatant. The radioactivity in the membrane pellet is measured in Wallac-1470 Wizard autogamma counter (Pharmacia). Nonspecific binding is defined as membrane-associated radioactivity in the presence of saturating concentrations of ETs (100 nM). Nonspecific binding is subtracted from the total binding and the difference is defined as specific binding. Total binding is always less than 15% of the total radioactivity added. […] From the inhibition curves for the binding of [^125 I]ETs, the apparant binding affinity constant (Ki) of one of the test compounds is calculated as a parameter of the affinity for the ETA and ETB receptors, as shown in the following table.

Row | Compound | Bmax [fmol/mg protein]
1 | [^125 I]ET-3: radiolabelled endothelin-3 purchased from Amersham International; ETs are vasoactive peptides with 21 amino acid residues | 362

target: T1, ETB receptor; assay: Endothelin (ET) receptor binding assay, ETB receptor; settings: [^125 I]ET-3 alone; porcine lung plasma membrane; 37° C., 1 hour, pH 7.4
Experimental: Endothelin (ET) receptor binding assay
After the incubation, unbound [^125 I]ETs were separated by centrifugation at 20,000×g for 20 min at 4° C. followed by aspiration of the supernatant. The radioactivity in the membrane pellet is measured in Wallac-1470 Wizard autogamma counter (Pharmacia). Nonspecific binding is defined as membrane-associated radioactivity in the presence of saturating concentrations of ETs (100 nM). Nonspecific binding is subtracted from the total binding and the difference is defined as specific binding.

Row | Compound | Ki [nM]
2 | Cc1cc(C)cc(C(=O)N(C)[C@H](Cc2ccc(O)cc2)C(=O)NC(Cc2c[nH]c3ccccc23)C(=O)NS(=O)(=O)c2ccccc2)c1 (some centres unmarked) [7(9), N-benzenesulfonyl-[N-(3,5-dimethylbenzoyl)-N-methyl-3-(4-hydroxyphenyl)-(D)-alanyl]-(D,L)-tryptophanamide] | 2.3
3 | CCCCS(=O)(=O)NC(=O)[C@@H](NC(=O)C(Cc1ccc(-c2ccno2)cc1)N(C)C(=O)c1cc(C)cc(C)c1)[C@@H](C)CC (some centres unmarked) [10(a), N-butanesulfonyl-[N-(3,5-dimethylbenzoyl)-N-methyl-3-[4-(5-isoxazolyl)-phenyl]-(D,L)-alanyl]-(L)-isoleucineamide] | 3.5
4 | Cc1cc(C)cc(C(=O)N(C)[C@H](Cc2ccc(-c3ccccc3)cc2)C(=O)NC(Cc2c[nH]c3ccccc23)C(=O)NS(=O)(=O)c2ccccc2)c1 (some centres unmarked) [Example 1, N-benzenesulfonyl-[N-(3,5-dimethylbenzoyl)-N-methyl-3-(biphenyl-4-yl)-(D)-alanyl]-(D,L)-tryptophanamide] | 0.9
5 | Cc1cc(C)cc(C(=O)N(C)[C@H](Cc2ccc(-c3ccsc3)cc2)C(=O)NC(Cc2c[nH]c3ccccc23)C(=O)NS(=O)(=O)c2cccs2)c1 (some centres unmarked) [Example 2, N-(2-thienyl)sulfonyl-[N-(3,5-dimethylbenzoyl)-N-methyl-(D)-3-[4-(3-thienyl)phenyl]-alanyl]-(D,L)-tryptophanamide] | 0.3
6 | Cc1cc(C)cc(C(=O)N(C)[C@H](Cc2ccc(-c3ccno3)cc2)C(=O)NC(Cc2c[nH]c3ccccc23)C(=O)NS(=O)(=O)c2ccccc2)c1 (some centres unmarked) [Example 6] | 0.34
7 | CCCCS(=O)(=O)NC(=O)[C@H](Cc1c[nH]c2ccccc12)NC(=O)C(Cc1ccc(-c2ccno2)cc1)N(C)C(=O)c1cc(C)cc(C)c1 (some centres unmarked) [Example 8, N-butanesulfonyl-[N-(3,5-dimethylbenzoyl)-N-methyl-3-[4-(5-isoxazolyl)-phenyl]-(D,L)-alanyl]-(L)-tryotophanamide] | 0.24
8 | C=CCS(=O)(=O)NC(=O)[C@H](Cc1c[nH]c2ccccc12)NC(=O)C(Cc1ccc(-c2ccno2)cc1)N(C)C(=O)c1cc(C)cc(C)c1 (some centres unmarked) [Example 9, N-(2-propene)sulfonyl-[N-(3,5-dimethylbenzoyl)-N-methyl-3-[4-(5-isoxazolyl)-phenyl]-(D,L)-alanyl]-(L)-tryptophanamide] | 0.23
9 | CCCCS(=O)(=O)NC(=O)[C@@H](NC(=O)C(Cc1ccc(-c2ccno2)cc1)N(C)C(=O)c1cc(C)cc(C)c1)C(C)C (some centres unmarked) [Example 11, N-butanesulfonyl-[N-(3,5-dimethylbenzoyl)-N-methyl-3-[4-(5-isoxazolyl)-phenyl]-(D,L)-alanyl]-(L)-valineamide] | 1.2
10 | CCCCS(=O)(=O)NC(=O)[C@H](Cc1c[nH]c2ccccc12)NC(=O)C(Cc1ccc(-n2cncn2)cc1)N(C)C(=O)c1cc(C)cc(C)c1 (some centres unmarked) [Example 12, N-butanesulfonyl-[N-(3,5-dimethylbenzoyl)-N-methyl-3-[4-(1,2,4-triazol-1-yl)-phenyl]-(D,L)-alanyl]-(L)-tryptophanamide] | 0.16
11 | CCCCS(=O)(=O)NC(=O)[C@H](Cc1c[nH]c2ccccc12)NC(=O)C(Cc1ccc(-n2ccnn2)cc1)N(C)C(=O)c1cc(C)cc(C)c1 (some centres unmarked) [Example 13, N-butanesulfonyl-[N-(3,5-dimethylbenzoyl)-N-methyl-3-[4-(1,2,3-triazol-1-yl)-phenyl]-(D,L)-alanyl]-(L)-tryptophanamide] | 0.27
